Results as given in the supplement of paper PMC10307832.

Assays:
Test in all cases: relative viability (nuclei count vs DMSO), 5 days (fraction); higher = more cells survive
CUDC-101 + Decitabine = compound: C#Cc1cccc(Nc2ncnc3cc(OC)c(OCCCCCCC(=O)NO)cc23)c1 [CUDC-101] + Nc1ncn([C@H]2C[C@H](O)[C@@H](CO)O2)c(=O)n1 [Decitabine] (partner 2 µM)
In short: (§1)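 A single step with final 0.05% Triton X-100, 1% formaldehyde and 1 ug/ml Hoechst fixed the cells and stained nuclei 5 days after treatment. Lung cancer cell lines in 1536-well plates had been treated by pin tool the day after seeding with one drug alone or a fixed anchor-drug dose plus five library-drug doses (not always all listed) in √10 steps, and nuclei were counted on 4× images. Relative viability is the ratio of nuclei in treated wells to nuclei in vehicle wells, taken as the median of duplicate plates.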

Vandetanib + Luminespib = compound: COc1cc2/c(=N/c3ccc(Br)cc3F)nc[nH]c2cc1OCC1CCN(C)CC1 [Vandetanib] + CCNC(=O)c1noc(-c2cc(C(C)C)c(O)cc2O)c1-c1ccc(CN2CCOCC2)cc1 [Luminespib] (partner 0.01 µM)
In short: as §1

Vandetanib + AZD7762 = compound: COc1cc2/c(=N/c3ccc(Br)cc3F)nc[nH]c2cc1OCC1CCN(C)CC1 [Vandetanib] + NC(=O)Nc1cc(-c2cccc(F)c2)sc1C(=O)N[C@H]1CCCNC1 [AZD7762] (partner 0.2 µM)
In short: as §1

NVP-TAE684 + Olaparib = compound: COc1cc(N2CCC(N3CCN(C)CC3)CC2)ccc1Nc1ncc(Cl)c(Nc2ccccc2S(=O)(=O)C(C)C)n1 [NVP-TAE684] + O=C(c1cc(Cc2n[nH]c(=O)c3ccccc23)ccc1F)N1CCN(C(=O)C2CC2)CC1 [Olaparib] (partner 8 µM)
In short: as §1

Row | Cell Line | relative viability (CUDC-101 + Decitabine; first compound 0.01 µM) | relative viability (CUDC-101 + Decitabine; first compound 0.03162 µM) | relative viability (CUDC-101 + Decitabine; first compound 0.1 µM) | relative viability (CUDC-101 + Decitabine; first compound 0.3162 µM) | relative viability (CUDC-101 + Decitabine; first compound 1 µM) | relative viability (Vandetanib + Luminespib; first compound 0.02 µM) | relative viability (Vandetanib + Luminespib; first compound 0.06325 µM) | relative viability (Vandetanib + Luminespib; first compound 0.2 µM) | relative viability (Vandetanib + Luminespib; first compound 0.6325 µM) | relative viability (Vandetanib + Luminespib; first compound 2 µM) | relative viability (Vandetanib + AZD7762; first compound 0.02 µM) | relative viability (Vandetanib + AZD7762; first compound 0.06325 µM) | relative viability (Vandetanib + AZD7762; first compound 0.2 µM) | relative viability (Vandetanib + AZD7762; first compound 0.6325 µM) | relative viability (Vandetanib + AZD7762; first compound 2 µM) | relative viability (NVP-TAE684 + Olaparib; first compound 0.2 µM) | relative viability (NVP-TAE684 + Olaparib; first compound 0.6325 µM) | relative viability (NVP-TAE684 + Olaparib; first compound 2 µM)
1 | NCI-H358 | 0.209 | 0.204 | 0.174 | 0.206 | 0.112 | 0.336 | 0.471 | 0.461 | 0.218 | 0.239 | 0.545 | 0.465 | 0.476 | 0.431 | 0.358 | 0.637 | 0.579 | 0.275
2 | SW 900 | 0.428 | 0.405 | 0.426 | 0.397 | 0.33 | 0.19 | 0.17 | 0.195 | 0.204 | 0.175 | 0.6 | 0.607 | – | 0.598 | 0.688 | 0.885 | 0.953 | 0.68
3 | NCI-H3122 | 0.402 | 0.4 | 0.51 | 0.461 | 0.485 | 0.0842 | 0.111 | 0.0787 | 0.0959 | 0.0934 | 0.917 | 1 | 1.01 | 0.926 | 1.01 | 0.342 | 0.225 | 0.111
4 | NCI-H441 | 0.303 | 0.305 | 0.262 | 0.242 | 0.236 | 0.376 | 0.392 | 0.208 | 0.409 | 0.45 | 1.12 | 0.945 | 1.02 | 1.31 | 1.34 | 0.617 | 0.659 | 0.309
5 | NCI-H596 | 0.902 | 1.03 | 0.988 | 1.18 | 1.02 | 0.915 | 0.89 | 0.81 | 1.02 | 0.771 | 1.15 | 1.05 | 1.12 | 1.02 | 1.17 | 0.66 | 0.595 | 0.537
6 | PC-3 [JPC-3] | 0.773 | 0.717 | 0.54 | 0.723 | 0.476 | 0.724 | 0.661 | 0.639 | 0.745 | 0.524 | 0.766 | 0.729 | 0.591 | 0.512 | 0.419 | 1.32 | 1.02 | –
7 | NCI-H1993 | 0.62 | 0.548 | 0.602 | 0.586 | 0.488 | 0.951 | 0.785 | 0.538 | 0.838 | 0.721 | 0.737 | 0.74 | 0.861 | 0.78 | 0.555 | 1.11 | 1.09 | 0.749
8 | NCI-H1355 | 0.359 | 0.313 | 0.358 | 0.355 | 0.313 | 0.618 | 0.731 | 0.838 | 0.685 | 0.698 | 0.741 | 0.742 | 0.755 | 0.66 | 0.653 | 0.657 | 0.713 | 0.499
9 | NCI-H23 | 0.317 | 0.321 | 0.346 | 0.307 | 0.543 | 0.259 | 0.224 | 0.232 | 0.221 | 0.221 | 0.193 | 0.251 | 0.199 | 0.234 | 0.31 | 0.312 | 0.211 | 0.187
10 | ABC-1 | 0.989 | 0.92 | 0.992 | 0.985 | 1.03 | 0.673 | 0.616 | 0.401 | 1.2 | 0.594 | 0.871 | 0.901 | – | 0.726 | 0.773 | 0.636 | 0.692 | 0.37
11 | HCC-44 | 0.908 | 1.03 | 0.912 | 0.906 | 0.913 | 1.01 | 0.988 | 1.13 | 1.2 | 1.01 | 0.982 | 1.04 | 1.11 | 1.03 | 1.04 | 0.997 | 1.07 | 0.905
12 | NCI-H1755 | 0.695 | 0.748 | 0.83 | 0.755 | 0.64 | 0.396 | 0.43 | 0.409 | 0.783 | 0.353 | 0.455 | 0.436 | 0.42 | 0.437 | 0.503 | 0.926 | 0.965 | –
13 | NCI-H2126 | 0.564 | 0.572 | 0.597 | 0.567 | 0.519 | 0.882 | 0.855 | 0.888 | 0.914 | 0.687 | 1.03 | 0.938 | 1.01 | 0.971 | 1 | 0.88 | – | 0.712
14 | NCI-H650 | 0.359 | 0.366 | 0.323 | 0.286 | 0.264 | 0.843 | 0.667 | – | 0.992 | 0.766 | 1.01 | 1.02 | 0.976 | 0.941 | 0.905 | 0.423 | 0.376 | 0.289
15 | 201T | 0.835 | 0.863 | 0.844 | 0.842 | 0.828 | 1.03 | 1.05 | 1.01 | 0.99 | 0.974 | 0.675 | 0.62 | 0.626 | 0.588 | 0.614 | 0.886 | 0.823 | 0.815
16 | LU99A | 0.824 | 0.823 | 0.9 | 0.831 | 0.657 | 0.231 | 0.233 | 0.273 | 0.255 | 0.256 | 0.303 | 0.516 | 0.344 | 0.238 | 0.334 | 0.283 | 0.266 | 0.24
17 | NCI-H647 | 0.267 | 0.326 | 0.308 | 0.335 | 0.24 | 0.334 | 0.337 | 0.0629 | 0.283 | 0.285 | 0.404 | 0.481 | 0.395 | 0.404 | 0.446 | 0.434 | 0.562 | 0.16
18 | LC-2-ad | 0.872 | 0.774 | 0.829 | 0.717 | 0.621 | 0.987 | 0.996 | 1.09 | 1 | 0.616 | 0.807 | 0.809 | 0.766 | 0.756 | 0.69 | 0.75 | 0.675 | 0.464
19 | LK-2 | 0.262 | 0.329 | 0.384 | 0.2 | 0.125 | 0.189 | 0.163 | 0.235 | 0.156 | 0.214 | 0.36 | 0.345 | 0.309 | 0.369 | 0.515 | 0.698 | 0.698 | 0.451
20 | NCI-H1975 | 0.398 | 0.451 | 0.389 | 0.391 | 0.374 | 0.347 | 0.27 | 0.224 | 0.173 | 0.236 | 0.701 | 0.663 | 0.645 | 0.687 | 0.617 | 0.862 | 0.748 | 0.288
